Source: patent US11166959B2, “Isofuranone compounds useful as HPK1 inhibitors” (BRISTOL-MYERS SQUIBB COMPANY, priority 2017, dated 2021)

How the values were obtained:
[1] = molecular target: T1, IRAK4 (Homo sapiens, UniProt Q9NWZ3); experiment: IRAK4 Inhibition Assay (kinase reaction, Caliper capillary electrophoresis); assay type: biochemical; settings: 500 μM ATP, 11 concentrations
T1 construct: 1 nM IRAK4 (160-460); purchased SignalChem M24016
T1 sequence (Q9NWZ3 160-460): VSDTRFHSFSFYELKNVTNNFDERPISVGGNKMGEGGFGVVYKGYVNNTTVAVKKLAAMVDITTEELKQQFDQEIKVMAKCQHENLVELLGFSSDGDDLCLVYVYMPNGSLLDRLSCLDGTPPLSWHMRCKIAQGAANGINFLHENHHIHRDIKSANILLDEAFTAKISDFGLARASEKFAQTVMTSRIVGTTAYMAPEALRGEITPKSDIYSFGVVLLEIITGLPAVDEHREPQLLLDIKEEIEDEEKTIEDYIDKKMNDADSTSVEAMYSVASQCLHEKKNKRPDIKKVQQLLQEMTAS

[2] = molecular target: T2, HPK1 (Homo sapiens, UniProt Q92918); experiment: HPK1 Inhibition Assay (kinase reaction, Caliper capillary electrophoresis); assay type: biochemical; settings: for IC50: 0.625 nM HPK1, 22 μM ATP, 11 concentrations, read-out: HPK1 IC50; for IRAK4/HPK1 Ratio: ratio of the IRAK4 IC50 value to the HPK1 IC50 value
T2 construct: purchased SignalChem M23-11G
T2 sequence (Q92918 1-346 limits assumed): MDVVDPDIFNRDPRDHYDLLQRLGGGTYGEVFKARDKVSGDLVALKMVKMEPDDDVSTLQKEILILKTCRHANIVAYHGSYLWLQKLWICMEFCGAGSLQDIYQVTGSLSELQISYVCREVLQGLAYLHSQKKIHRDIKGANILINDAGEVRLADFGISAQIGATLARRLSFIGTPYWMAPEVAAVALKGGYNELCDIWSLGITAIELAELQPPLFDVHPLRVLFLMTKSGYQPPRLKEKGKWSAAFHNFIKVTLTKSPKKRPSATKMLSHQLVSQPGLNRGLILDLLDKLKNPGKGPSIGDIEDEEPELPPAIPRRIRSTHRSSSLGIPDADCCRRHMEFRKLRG
Method in brief: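 Kinase reactions ran 3 h and were stopped with 1 mM EDTA, with enzyme level and time set for at most 20-30% peptide substrate conversion. Phosphorylated and unphosphorylated peptide were separated by capillary electrophoresis to measure conversion. IC50 derived from 11 compound concentrations.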

IC50 [1] [nM]	IC50 [2] [nM]	IRAK4/HPK1 Ratio [2]	Compound
250 to 1000	< 50	B (B=10 to 50)	CC1(C)OC(=O)c2ccc(Nc3ncc(C(=O)NNC(=O)c4cnccn4)c(N[C@H](CO)c4ccccc4)n3)cc21 [Example 58, N′-{2-[(3,3-dimethyl-1-oxo-1,3-dihydro-2-benzofuran-5-yl)amino]-4-{[(1S)-2-hydroxy-1-phenylethyl]amino}pyrimidine-5-carbonyl} pyrazine-2-carbohydrazide]
250 to 1000	< 50	B (B=10 to 50)	CC/N=C(\NCCCN(C)C)NNC(=O)c1cnc(Nc2ccc3c(c2)C(C)(C)OC3=O)nc1N[C@H](CO)c1ccccc1 [Example 59, 1-({2-[(3,3-dimethyl-1-oxo-1,3-dihydro-2-benzofuran-5-yl)amino]-4-{[(1S)-2-hydroxy-1-phenylethyl]amino}pyrimidin-5-yl}formohydrazido)-N-[3-(dimethylamino)propyl]-N′-ethylmethanimidamide]
250 to 1000	50 to 250	B (B=10 to 50)	CC(C)(O)C(=O)NNC(=O)c1cnc(Nc2ccc3c(c2)C(C)(C)OC3=O)nc1N[C@H](CO)c1ccccc1 [Example 60, 2-[(3,3-dimethyl-1-oxo-1,3-dihydro-2-benzofuran-5-yl)amino]-4-{[(1S)-2-hydroxy-1-phenylethyl]amino}-N′-(2-hydroxy-2-methylpropanoyl)pyrimidine-5-carbohydrazide]
50 to 250	< 50	C (C=>50)	CC(C)(O)c1nnc(-c2cnc(Nc3ccc4c(c3)C(C)(C)OC4=O)nc2N[C@H](CO)c2ccccc2)o1 [Example 61, 5-[(4-{[(1S)-2-hydroxy-1-phenylethyl]amino}-5-[5-(2-hydroxypropan-2-yl)-1,3,4-oxadiazol-2-yl]pyrimidin-2-yl)amino]-3,3-dimethyl-1,3-dihydro-2-benzofuran-1-one]
250 to 1000	< 50	C (C=>50)	CC1(C)OC(=O)c2ccc(Nc3ncc(C(=O)NNC(=O)C4CC4)c(N[C@H](CO)c4ccccc4)n3)cc21 [Example 62, (S)—N′-(cyclopropanecarbonyl)-2-((3,3-dimethyl-1-oxo-1,3-dihydroisobenzofuran-5-yl)amino)-4-((2-hydroxy-1-phenylethyl)amino)pyrimidine-5-carbohydrazide]
250 to 1000	50 to 250	B (B=10 to 50)	CC1(C)OC(=O)c2ccc(Nc3ncc(C(=O)NNC(=O)C(C)(O)C(F)(F)F)c(N[C@H](CO)c4ccccc4)n3)cc21 (stereo partly drawn) [Example 64, 2-[(3,3-dimethyl-1-oxo-1,3-dihydro-2-benzofuran-5-yl)amino]-4-{[(1S)-2-hydroxy-1-phenylethyl]amino}-N′-(3,3,3-trifluoro-2-hydroxy-2-methylpropanoyl)pyrimidine-5-carbohydrazide]
250 to 1000	< 50	B (B=10 to 50)	CC1(C)OC(=O)c2ccc(Nc3ncc(-c4nnc(C(C)(O)C(F)(F)F)o4)c(N[C@H](CO)c4ccccc4)n3)cc21 (stereo partly drawn) [Example 65, 5-[(4-{[(1S)-2-hydroxy-1-phenylethyl]amino}-5-[5-(1,1,1-trifluoro-2-hydroxypropan-2-yl)-1,3,4-oxadiazol-2-yl]pyrimidin-2-yl)amino]-3,3-dimethyl-1,3-dihydro-2-benzofuran-1-one]
250 to 1000	50 to 250	B (B=10 to 50)	CC1(C)OC(=O)c2ccc(Nc3ncc(-c4nnc(-c5ccccn5)o4)c(N[C@H](CO)c4ccccc4)n3)cc21 [Example 66, 5-[(4-{[(1S)-2-hydroxy-1-phenylethyl]amino}-5-[5-(pyridin-2-yl)-1,3,4-oxadiazol-2-yl]pyrimidin-2-yl)amino]-3,3-dimethyl-1,3-dihydro-2-benzofuran-1-one]
50 to 250	< 50	B (B=10 to 50)	CC1(C)OC(=O)c2ccc(Nc3ncc(-c4nnc(-c5cccnn5)o4)c(N[C@H](CO)c4ccccc4)n3)cc21 [Example 67, 5-[(4-{[(1S)-2-hydroxy-1-phenylethyl]amino}-5-[5-(pyridazin-3-yl)-1,3,4-oxadiazol-2-yl]pyrimidin-2-yl)amino]-3,3-dimethyl-1,3-dihydro-2-benzofuran-1-one]
250 to 1000	< 50	B (B=10 to 50)	CC1(C)OC(=O)c2ccc(Nc3ncc(-c4nnc(C5(C(F)(F)F)CC5)o4)c(N[C@H](CO)c4ccccc4)n3)cc21 [Example 68, 5-[(4-{[(1S)-2-hydroxy-1-phenylethyl]amino}-5-{5-[1-(trifluoromethyl)cyclopropyl]-1,3,4-oxadiazol-2-yl}pyrimidin-2-yl)amino]-3,3-dimethyl-1,3-dihydro-2-benzofuran-1-one]
50 to 250	< 50	B (B=10 to 50)	CC1(C)OC(=O)c2ccc(Nc3ncc(-c4nnc(C5CCS(=O)(=O)CC5)o4)c(N[C@H](CO)c4ccccc4)n3)cc21 [Example 69, (S)-5-((5-(5-(1,1-dioxidotetrahydro-2H-thiopyran-4-yl)-1,3,4-oxadiazol-2-yl)-4-((2-hydroxy-1-phenylethyl)amino)pyrimidin-2-yl)amino)-3,3-dimethylisobenzofuran-1(3H)-one]
250 to 1000	50 to 250	B (B=10 to 50)	CC1(C)OC(=O)c2ccc(Nc3ncc(-c4nnc(C5(OC(=O)N6CC(F)(F)C6)CC5)o4)c(N[C@H](CO)c4ccccc4)n3)cc21 [Example 70, 1-(5-{2-[(3,3-dimethyl-1-oxo-1,3-dihydro-2-benzofuran-5-yl)amino]-4-{[(1S)-2-hydroxy-1-phenylethyl]amino}pyrimidin-5-yl}-1,3,4-oxadiazol-2-yl)cyclopropyl 3,3-difluoroazetidine-1-carboxylate]
250 to 1000	< 50	B (B=10 to 50)	CCOC(=O)c1cnc(Nc2ccc3c(c2)C(C)(C)OC3=O)nc1NCc1ccccc1C(C)(C)O [Example 71, Ethyl 2-[(3,3-dimethyl-1-oxo-1,3-dihydro-2-benzofuran-5-yl)amino]-4-({[2-(2-hydroxypropan-2-yl)phenyl]methyl}amino)pyrimidine-5-carboxylate]
250 to 1000	50 to 250	B (B=10 to 50)	Cc1noc(-c2cnc(Nc3ccc4c(c3)C(C)(C)OC4=O)nc2NCc2ccccc2C(C)(C)O)n1 [Example 72, 5-{[4-({[2-(2-hydroxypropan-2-yl)phenyl]methyl}amino)-5-(3-methyl-1,2,4-oxadiazol-5-yl)pyrimidin-2-yl]amino}-3,3-dimethyl-1,3-dihydro-2-benzofuran-1-one]
250 to 1000	50 to 250	B (B=10 to 50)	CC(C)(O)c1ccccc1CNc1nc(Nc2ccc3c(c2)C(C)(C)OC3=O)ncc1-c1nc(C2CC2)no1 [Example 73, 5-{[5-(3-cyclopropyl-1,2,4-oxadiazol-5-yl)-4-({[2-(2-hydroxypropan-2-yl)phenyl]methyl}amino)pyrimidin-2-yl]amino}-3,3-dimethyl-1,3-dihydro-2-benzofuran-1-one]
250 to 1000	50 to 250	B (B=10 to 50)	Cc1noc(-c2cnc(Nc3ccc4c(c3)C(C)(C)OC4=O)nc2Nc2ccc3[nH]ncc3c2)n1 [Example 74, 5-({4-[(1H-indazol-5-yl)amino]-5-(3-methyl-1,2,4-oxadiazol-5-yl)pyrimidin-2-yl}amino)-3,3-dimethyl-1,3-dihydro-2-benzofuran-1-one]
250 to 1000	50 to 250	B (B=10 to 50)	CC1(C)OC(=O)c2ccc(Nc3ncc(-c4nc(C5CC5)no4)c(Nc4ccc5[nH]ncc5c4)n3)cc21 [Example 75, 5-{[5-(3-cyclopropyl-1,2,4-oxadiazol-5-yl)-4-[(1H-indazol-5-yl)amino]pyrimidin-2-yl]amino}-3,3-dimethyl-1,3-dihydro-2-benzofuran-1-one]
250 to 1000	50 to 250	B (B=10 to 50)	CCOC(=O)c1cnc(Nc2ccc3c(c2)C(C)(C)OC3=O)nc1NCCC(C)(C)N [Example 76, Ethyl 4-[(3-amino-3-methylbutyl)amino]-2-[(3,3-dimethyl-1-oxo-1,3-dihydro-2-benzofuran-5-yl)amino]pyrimidine-5-carboxylate]
250 to 1000	< 50	C (C=>50)	CC(C)(CN)CNc1nc(Nc2ccc3c(c2)C(C)(C)OC3=O)ncc1-c1nc(C2CCOCC2)no1 [Example 77, 5-({4-[(3-amino-2,2-dimethylpropyl)amino]-5-[3-(oxan-4-yl)-1,2,4-oxadiazol-5-yl]pyrimidin-2-yl}amino)-3,3-dimethyl-1,3-dihydro-2-benzofuran-1-one]
